Test results reported in ChEMBL document CHEMBL5053549, “Discovery of Potent and Novel Dual PARP/BRD4 Inhibitors for Efficient Treatment of Pancreatic Cancer” (J Med Chem, 2021).
Active and inactive are the calls of the source. The calls are words filed in the database; no cut-off is given here.

Legend:
SW1990 [1] = assay: Induction of autophagy in human SW1990 cells assessed as increase in LC3B expression at 4 uM incubated for 4 days by immunofluorescence assay; assay type: functional, cell-based; details: time 4.0 day
Mus musculus [2] = assay: Toxicity in BALB/c mouse xenografted with human SW1990 cells assessed as effect on body weight at 15 mg/kg, ip administered for 28 consecutive days; assay type: organism-based; details: in vivo, 672 h, time 28 day
Mus musculus [3] = assay: Toxicity in BALB/c mouse xenografted with human SW1990 cells assessed as lung damage at 15 mg/kg, ip administered for 28 consecutive days in presence of 45 mg/kg Olaparib; assay type: organism-based; details: in vivo, 672 h, time 28 day
Mus musculus [4] = assay: Toxicity in BALB/c mouse xenografted with human SW1990 cells assessed as spleen damage at 15 mg/kg, ip administered for 28 consecutive days in presence of 45 mg/kg Olaparib; assay type: organism-based; details: in vivo, 672 h, time 28 day
Mus musculus [5] = assay: In vivo inhibition of PARP1 expression in human […] cells xenografted in BALB/c mouse assessed as reversal of Olaparib-induced PARP1 accumulation at 15 mg/kg, ip administered for 28 consecutive days in presence of 45 mg/kg Olaparib by immunohistochemical analysis; assay type: functional, organism-based; details: time 28.0 day
Mus musculus [6] = assay: In vivo inhibition of PARP1 expression in human […] cells xenografted in BALB/c mouse assessed as reversal of Olaparib-induced PARP1 accumulation at 15 mg/kg, ip administered for 28 consecutive days in presence of 45 mg/kg Olaparib by Q-PCR analysis; assay type: functional, organism-based; details: time 28.0 day
SW1990 [7] = assay: Induction of cell cycle arrest in human SW1990 cells assessed as accumulation of cells at G2/M phase at 1 uM incubated for 4 days in presence of 3 uM Olaparib by propidium iodide staining based flow cytometry (reference value: 5.89%); assay type: functional; details: time 4 day
SW1990 [8] = assay: Inhibition of homologous recombinant repair in human SW1990 cells assessed as reduction in Olaparib-induced BRCA1 expression at 1 uM after 4 days in presence of Olaparib by Q-PCR analysis; assay type: functional, cell-based; details: time 4.0 day
SW1990 [9] = assay: Inhibition of homologous recombinant repair in human SW1990 cells assessed as reduction in Olaparib-induced Rad51 expression at 1 uM after 4 days in presence of Olaparib by Q-PCR analysis; assay type: functional, cell-based; details: time 4.0 day
SW1990 [10] = assay: Inhibition of homologous recombinant repair in human SW1990 cells assessed as reduction in FOXM1 expression at 4 uM after 4 days by Western blot analysis; assay type: functional, cell-based; details: time 4.0 day
SW1990 [11] = assay: Inhibition of homologous recombinant repair in human SW1990 cells assessed as reduction in BRCA1 expression at 4 uM after 4 days by Q-PCR analysis; assay type: functional, cell-based; details: time 4.0 day
Mus musculus [12] = assay: Inhibition of homologous recombinant repair in human SW1990 cells xenografted in BALB/c mouse assessed as increase in HEX1M1 expression at 45 mg/kg, ip after 4 days by immunohistochemical analysis; assay type: functional, organism-based; details: time 4.0 day
[13] = target: Bromodomain-containing protein 4 (Homo sapiens, UniProt O60885); assay: Inhibition of recombinant BRD4 (unknown origin) incubated for 120 mins by TR-FRET assay
[14] = target: Bromodomain-containing protein 2 (Homo sapiens, UniProt P25440); assay: Inhibition of recombinant BRD2 BD1 (unknown origin) incubated for 120 mins by TR-FRET assay
Mus musculus [15] = assay: Inhibition of homologous recombinant repair in human SW1990 cells xenografted in BALB/c mouse assessed as reduction in olaparib-induced BRCA1 expression at 15 mg/kg, ip after 4 days by immunohistochemical analysis; assay type: functional, organism-based; details: time 4.0 day
Mus musculus [16] = assay: Inhibition of homologous recombinant repair in human SW1990 cells xenografted in BALB/c mouse assessed as reduction in olaparib-induced FOXM1 expression at 15 mg/kg, ip after 4 days by immunohistochemical analysis; assay type: functional, organism-based; details: time 4.0 day
Mus musculus [17] = assay: Toxicity in BALB/c mouse xenografted with human SW1990 cells assessed as effect on body weight at 45 mg/kg, ip administered for 28 consecutive days; assay type: organism-based; details: in vivo, 672 h, time 28 day
SW1990 [18] = assay: Antitumor activity against human SW1990 cells xenografted in BALB/c mouse assessed as inhibition of Ki67 expression at 45 mg/kg, ip administered for 28 consecutive days by immunohistochemical analysis; assay type: functional, organism-based; details: time 28.0 day
Mus musculus [19] = assay: In vivo inhibition of BRD4 expression in human […] cells xenografted in BALB/c mouse at 45 mg/kg, ip administered for 28 consecutive days by immunohistochemical analysis; assay type: functional, organism-based; details: time 28.0 day
Mus musculus [20] = assay: In vivo inhibition of PARP1 expression in human […] cells xenografted in BALB/c mouse at 45 mg/kg, ip administered for 28 consecutive days by Q-PCR analysis; assay type: functional, organism-based; details: time 28.0 day
SW1990 [21] = assay: Induction of cell cycle arrest in human SW1990 cells assessed as accumulation of cells at G0/G1 phase at 1 uM incubated for 4 days by propidium iodide staining based flow cytometry (reference value: 64.79%); assay type: functional; details: time 4 day
SW1990 [22] = assay: Induction of cell cycle arrest in human SW1990 cells assessed as accumulation of cells at G2/M phase at 2 uM incubated for 4 days by propidium iodide staining based flow cytometry (reference value: 5.89%); assay type: functional; details: time 4 day
Mus musculus [23] = assay: Effect on cell cycle progression in human SW1990 cells xenografted in BALB/c mouse assessed as reduction in PLK1 expression at 45 mg/kg, ip after 4 days by Q-PCR analysis; assay type: functional, organism-based; details: time 4.0 day
SW1990 [24] = assay: Effect on cell cycle progression in human SW1990 cells assessed as reduction in E2F2 expression at 1 to 2 uM after 4 days by Q-PCR analysis; assay type: functional, cell-based; details: dose 1-2 µM, time 4.0 day
Mus musculus [25] = assay: Effect on cell cycle progression in human SW1990 cells xenografted in BALB/c mouse assessed as reduction in E2F2 expression at 45 mg/kg, ip after 4 days by Western blot analysis; assay type: functional, organism-based; details: time 4.0 day
SW1990 [26] = assay: Inhibition of homologous recombinant repair in human SW1990 cells assessed as reduction in Rad51 expression at 1 to 2 uM after 4 days by Western blot analysis; assay type: functional, cell-based; details: dose 1-2 µM, time 4.0 day
SW1990 [27] = assay: Inhibition of homologous recombinant repair in human SW1990 cells assessed as increase in […] expression at 1 to 2 uM after 4 days by Q-PCR analysis; assay type: functional, cell-based; details: dose 1-2 µM, time 4.0 day
SW1990 [28] = assay: Inhibition of homologous recombinant repair in human SW1990 cells assessed as reduction in c-Myc expression at 1 to 2 uM after 4 days by Q-PCR analysis; assay type: functional, cell-based; details: dose 1-2 µM, time 4.0 day
SW1990 [29] = assay: Induction of autophagy in human SW1990 cells assessed as reduction in p62 expression at 1 to 2 uM incubated for 4 days by immunofluorescence assay; assay type: functional, cell-based; details: dose 1-2 µM, time 4.0 day
SW1990 [30] = assay: Induction of autophagy in human SW1990 cells assessed as increase in LC3B expression at 1 to 2 uM incubated for 4 days by immunofluorescence assay; assay type: functional, cell-based; details: dose 1-2 µM, time 4.0 day
SW1990 [31] = assay: Induction of autophagy in human SW1990 cells assessed as increase in pULK1 expression at 1 to 2 uM incubated for 4 days by immunofluorescence assay; assay type: functional, cell-based; details: dose 1-2 µM, time 4.0 day
SW1990 [32] = assay: Induction of autophagy in human SW1990 cells xenografted in BALB/c mouse assessed as increase in ATG5 expression at 45 mg/kg, ip after 4 days by Q-PCR analysis; assay type: functional, organism-based; details: time 4.0 day
SW1990 [33] = assay: Induction of autophagy in human SW1990 cells xenografted in BALB/c mouse assessed as decrease in p62 expression at 45 mg/kg, ip after 4 days by Western blot analysis; assay type: functional, organism-based; details: time 4.0 day

Chain of Bromodomain-containing protein 2 (P25440 whole entry): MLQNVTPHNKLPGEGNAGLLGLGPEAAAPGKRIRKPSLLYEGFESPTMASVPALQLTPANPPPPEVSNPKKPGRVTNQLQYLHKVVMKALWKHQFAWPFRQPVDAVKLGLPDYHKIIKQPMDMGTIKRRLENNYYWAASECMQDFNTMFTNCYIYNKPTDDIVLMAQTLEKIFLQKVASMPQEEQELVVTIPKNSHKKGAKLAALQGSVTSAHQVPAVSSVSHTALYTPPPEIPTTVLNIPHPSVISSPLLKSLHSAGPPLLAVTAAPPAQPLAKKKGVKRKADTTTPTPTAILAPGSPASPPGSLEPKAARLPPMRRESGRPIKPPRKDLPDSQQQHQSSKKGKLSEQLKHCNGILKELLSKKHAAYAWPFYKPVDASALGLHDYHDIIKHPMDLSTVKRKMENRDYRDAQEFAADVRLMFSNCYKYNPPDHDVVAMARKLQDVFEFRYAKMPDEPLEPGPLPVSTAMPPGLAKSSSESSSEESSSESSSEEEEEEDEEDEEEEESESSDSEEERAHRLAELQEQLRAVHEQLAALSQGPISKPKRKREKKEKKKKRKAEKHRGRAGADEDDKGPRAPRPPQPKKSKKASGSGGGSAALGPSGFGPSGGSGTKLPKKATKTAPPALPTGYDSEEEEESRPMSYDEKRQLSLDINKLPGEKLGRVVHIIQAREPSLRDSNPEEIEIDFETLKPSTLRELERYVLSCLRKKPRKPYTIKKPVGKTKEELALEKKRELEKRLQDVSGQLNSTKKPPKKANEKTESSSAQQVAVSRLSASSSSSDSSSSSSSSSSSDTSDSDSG

`Cc1sc2c(c1C)C(c1ccc(Cl)cc1)=N[C@@H](CC(=O)OC(C)(C)C)c1nnc(C)n1-2` was tested. Which Activity (SW1990 [1]) did it give?
The Activity was “Active”.

What about the Activity (Mus musculus [2]) of the same compound?
The Activity was “Non-Toxic”.

And the Activity (Mus musculus [3])?
Its Activity is “Non-Toxic”.

And the Activity (Mus musculus [4])?
The Activity was “Non-Toxic”.

What about the Activity (Mus musculus [5]) of the same compound?
Its Activity is “Active”.

And the Activity (Mus musculus [6])?
The Activity was “Active”.

And the Activity (SW1990 [7])?
Its Activity is 9.14%.

What about the inhibition (SW1990 [8]) of the same compound?
The inhibition was “Active”.

And the inhibition (SW1990 [9])?
The inhibition was “Active”.

And the inhibition (SW1990 [10])?
The inhibition was “Active”.

What about the inhibition (SW1990 [11]) of the same compound?
The inhibition was “Active”.

How did the inhibition (Mus musculus [12]) turn out when `CC[C@@H]1C(=O)N(C)c2cnc(N(C)c3ccc(-c4nc5c(C(N)=O)cccc5[nH]4)cc3OC)nc2N1C1CCCC1` was run?
The inhibition was “Active”.

What about the IC50 [13] of the same compound?
The IC50 was 101 nM.

And the IC50 [14]?
The IC50 was 381 nM.

What about the inhibition (Mus musculus [15]) of the same compound?
Its inhibition is “Active”.

And the inhibition (Mus musculus [16])?
The inhibition was “Active”.

What about the Activity (Mus musculus [17]) of the same compound?
Its Activity is “Non-Toxic”.

What about the Activity (SW1990 [18]) of the same compound?
The Activity was “Active”.

What about the Activity (Mus musculus [19]) of the same compound?
The Activity was “Active”.

What about the Activity (Mus musculus [20]) of the same compound?
Its Activity is “Active”.

And the Activity (SW1990 [21])?
Its Activity is 74.76%.

And the Activity (SW1990 [22])?
Its Activity is 13.22%.

And the Activity (Mus musculus [23])?
The Activity was “Active”.

What about the Activity (SW1990 [24]) of the same compound?
The Activity was “Active”.

What about the Activity (Mus musculus [25]) of the same compound?
Its Activity is “Active”.

And the inhibition (SW1990 [26])?
The inhibition was “Active”.

What about the inhibition (SW1990 [27]) of the same compound?
Its inhibition is “Active”.

What about the inhibition (SW1990 [28]) of the same compound?
Its inhibition is “Active”.

What about the Activity (SW1990 [29]) of the same compound?
Its Activity is “Active”.

What about the Activity (SW1990 [30]) of the same compound?
Its Activity is “Active”.

And the Activity (SW1990 [31])?
The Activity was “Active”.

And the Activity (SW1990 [32])?
Its Activity is “Active”.

And the Activity (SW1990 [33])?
The Activity was “Active”.
